{
  "source": "patent US4575487A",
  "about": "“Method for determination of transglucosidase” (Miles Laboratories, Inc., priority 1983, dated 1986)",
  "key": {"glucoamylase": {"molecular_target": "glucoamylase (Aspergillus niger, UniProt P69328)", "sequence (P69328 25-640)": "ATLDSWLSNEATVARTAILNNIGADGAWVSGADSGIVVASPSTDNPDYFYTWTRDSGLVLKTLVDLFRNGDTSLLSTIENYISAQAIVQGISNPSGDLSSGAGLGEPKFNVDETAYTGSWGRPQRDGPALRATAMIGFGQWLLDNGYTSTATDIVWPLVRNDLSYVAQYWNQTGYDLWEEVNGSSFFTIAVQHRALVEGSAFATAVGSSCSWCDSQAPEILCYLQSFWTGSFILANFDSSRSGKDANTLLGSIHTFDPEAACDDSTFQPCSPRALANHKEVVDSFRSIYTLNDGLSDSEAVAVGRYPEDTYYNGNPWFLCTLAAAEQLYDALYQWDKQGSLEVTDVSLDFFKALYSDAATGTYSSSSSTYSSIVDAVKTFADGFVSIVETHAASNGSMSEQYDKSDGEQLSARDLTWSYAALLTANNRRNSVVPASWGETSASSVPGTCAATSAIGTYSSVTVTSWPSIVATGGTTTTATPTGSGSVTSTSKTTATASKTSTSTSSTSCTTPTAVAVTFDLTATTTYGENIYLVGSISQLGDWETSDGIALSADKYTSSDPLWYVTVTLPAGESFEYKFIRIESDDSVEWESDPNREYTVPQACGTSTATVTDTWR", "test": "Effect of acarbose on glucoamylase activity (remaining activity with maltose)", "assay_type": "biochemical", "conditions": "for Inhibition (%) glucoamylase: one unit of glucoamylase", "excerpt": "(§1) A particularly effective, selective inhibitor is acarbose which is identified by J. Jap. Soc. […] The difference in the effect of acarbose on glucoamylase and transglucosidase has led to the development of a sensitive assay for transglucosidase in the presence of glucoamylase. To determine the level of acarbose needed to inhibit glucoamylase completely, purified glucoamylase equivalent to one DU (the amount that liberates one gram of reducing sugar per hour under the conditions of the assay published in U.S. Pat. No. 3,249,514) is treated with graded amounts of acarbose and the remaining activity measured by incubation with maltose under appropriate conditions, for example, at pH 4.2 and 37° C. with a maltose concentration of 10%. The extent of inhibition of glucoamylase activity is increased with increasing concentrations of acarbose up to 50 μg acarbose per DU enzyme and above, such concentrations causing 100% inhibition. In order to determine the effect of acarbose on TG activity, glucoamylase (one DU) containing TG (40 TG units, vide infra) was treated with different concentrations of acarbose and then incubated with maltose (10%), at pH 4.8, and 37° C. for one hour. The enzyme reaction was then terminated by heating the reaction mixture in a boiling water bath for 15 minutes and transglucosidase activity was determined by measuring, using liquid chromatography, the amount of panose produced during the reaction period. […] In these experiments, panose was routinely measured by a high pressure liquid chromatography procedure which separated this compound from glucose and maltose. Alternative procedures for specific determination of panose can be used equally well.\n(§2) It is recognized that the inhibition of glucoamylase or acarbose and the measurement of transglucosidase activity may equally well be conducted under different conditions. In order to work at such alternative conditions, it is necessary to determine the effect of a range of acarbose concentrations under the conditions selected, and in this way to identify a level of acarbose sufficient to give complete inhibition of glucoamylase without inhibiting transglucosidase activity.\n^a one unit of glucoamylase was present in the reaction mixture."}, "transglucosidase": {"molecular_target": "transglucosidase (Aspergillus niger, UniProt P56526)", "sequence (P56526 26-266)": "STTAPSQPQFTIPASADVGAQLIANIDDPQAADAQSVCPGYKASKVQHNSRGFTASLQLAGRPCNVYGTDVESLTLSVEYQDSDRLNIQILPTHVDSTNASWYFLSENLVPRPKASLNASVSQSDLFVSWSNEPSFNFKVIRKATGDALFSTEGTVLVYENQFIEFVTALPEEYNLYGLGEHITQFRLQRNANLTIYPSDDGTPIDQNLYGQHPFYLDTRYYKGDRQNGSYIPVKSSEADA", "sequence (P56526 267-985)": "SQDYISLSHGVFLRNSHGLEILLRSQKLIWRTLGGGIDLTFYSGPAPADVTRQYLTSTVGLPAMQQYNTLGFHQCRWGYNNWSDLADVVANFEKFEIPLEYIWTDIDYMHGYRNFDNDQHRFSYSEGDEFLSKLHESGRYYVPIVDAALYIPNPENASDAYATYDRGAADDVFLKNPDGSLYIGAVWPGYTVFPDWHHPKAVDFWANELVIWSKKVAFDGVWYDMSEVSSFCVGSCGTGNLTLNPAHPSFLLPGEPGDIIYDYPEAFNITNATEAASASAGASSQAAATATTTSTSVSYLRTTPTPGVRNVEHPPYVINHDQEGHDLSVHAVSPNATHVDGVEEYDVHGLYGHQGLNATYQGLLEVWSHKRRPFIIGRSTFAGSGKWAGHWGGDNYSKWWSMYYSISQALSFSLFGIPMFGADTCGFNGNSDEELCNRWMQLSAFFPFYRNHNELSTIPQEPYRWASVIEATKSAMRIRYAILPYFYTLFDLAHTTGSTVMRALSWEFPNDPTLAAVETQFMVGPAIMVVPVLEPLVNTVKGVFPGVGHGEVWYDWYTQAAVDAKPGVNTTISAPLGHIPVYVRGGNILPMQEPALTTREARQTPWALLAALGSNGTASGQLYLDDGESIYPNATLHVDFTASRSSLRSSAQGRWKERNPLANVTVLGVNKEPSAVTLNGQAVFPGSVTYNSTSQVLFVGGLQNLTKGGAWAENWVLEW", "test": "Effect of acarbose on transglucosidase activity (panose produced from maltose, in presence of glucoamylase)", "assay_type": "biochemical", "conditions": "for amount of panose produced: maltose 10%, pH 4.8, 37° C., one hour; for Inhibition (%) transglucosidase: 40 units of transglucosidase", "excerpt": "as §1, §2\n^b 40 units of transglucosidase were present in the reaction mixture."}, "amylolytic enzymes": {"test_system": "amylolytic enzymes", "conditions": "J. Jap. Soc. Starch Sci., 27, 114-119 (1980); cited from earlier work"}, "[1]": {"conditions": "acarbose 1.25 μg/DU glucoamylase"}, "[2]": {"conditions": "acarbose 2.5 μg/DU glucoamylase"}, "[3]": {"conditions": "acarbose 100 μg/DU glucoamylase"}, "[4]": {"conditions": "acarbose 200 μg/DU glucoamylase"}, "[5]": {"conditions": "acarbose 300 μg/DU glucoamylase"}, "[6]": {"conditions": "acarbose 400 μg/DU glucoamylase"}, "[7]": {"conditions": "acarbose 500 μg/DU glucoamylase"}, "[8]": {"conditions": "acarbose 600 μg/DU glucoamylase"}, "[9]": {"conditions": "acarbose 800 μg/DU glucoamylase"}, "[10]": {"conditions": "acarbose 1000 μg/DU glucoamylase"}, "[11]": {"conditions": "acarbose 2000 μg/DU glucoamylase"}},
  "data": [
    {"smiles": "C[C@H]1O[C@H](O[C@H]2[C@H](O)[C@@H](O)[C@@H](O[C@H]3[C@H](O)[C@@H](O)C(O)O[C@@H]3CO)O[C@@H]2CO)[C@H](O)[C@@H](O)[C@@H]1N[C@H]1C=C(CO)[C@@H](O)[C@H](O)[C@H]1O", "note": "(stereo partly shown) [acarbose]", "values": [
      {"measurement": "inhibition of glucoamylase activity", "setting": "glucoamylase; 50 μg acarbose per DU enzyme and above, maltose 10%, pH 4.2, 37° C.", "result": 100, "unit": "%"},
      {"measurement": "Inhibition (%) glucoamylase", "setting": "glucoamylase; [1]", "result": 23, "unit": "%"},
      {"measurement": "Inhibition (%) glucoamylase", "setting": "glucoamylase; [2]", "result": 36, "unit": "%"},
      {"measurement": "Inhibition (%) glucoamylase", "setting": "glucoamylase; acarbose 5 μg/DU glucoamylase", "result": 65, "unit": "%"},
      {"measurement": "Inhibition (%) glucoamylase", "setting": "glucoamylase; acarbose 10 μg/DU glucoamylase", "result": 86, "unit": "%"},
      {"measurement": "Inhibition (%) glucoamylase", "setting": "glucoamylase; acarbose 15 μg/DU glucoamylase", "result": 91, "unit": "%"},
      {"measurement": "Inhibition (%) glucoamylase", "setting": "glucoamylase; acarbose 20 μg/DU glucoamylase", "result": 95, "unit": "%"},
      {"measurement": "Inhibition (%) glucoamylase", "setting": "glucoamylase; acarbose 30 μg/DU glucoamylase", "result": 97, "unit": "%"},
      {"measurement": "Inhibition (%) glucoamylase", "setting": "glucoamylase; acarbose 40 μg/DU glucoamylase", "result": 98, "unit": "%"},
      {"measurement": "Inhibition (%) glucoamylase", "setting": "glucoamylase; acarbose 50 μg/DU glucoamylase", "result": 100, "unit": "%"},
      {"measurement": "Inhibition (%) glucoamylase", "setting": "glucoamylase; [3]", "result": 100, "unit": "%"},
      {"measurement": "Inhibition (%) glucoamylase", "setting": "glucoamylase; [4]", "result": 100, "unit": "%"},
      {"measurement": "Inhibition (%) glucoamylase", "setting": "glucoamylase; [5]", "result": 100, "unit": "%"},
      {"measurement": "Inhibition (%) glucoamylase", "setting": "glucoamylase; [6]", "result": 100, "unit": "%"},
      {"measurement": "Inhibition (%) glucoamylase", "setting": "glucoamylase; [7]", "result": 100, "unit": "%"},
      {"measurement": "Inhibition (%) glucoamylase", "setting": "glucoamylase; [8]", "result": 100, "unit": "%"},
      {"measurement": "Inhibition (%) glucoamylase", "setting": "glucoamylase; [9]", "result": 100, "unit": "%"},
      {"measurement": "Inhibition (%) glucoamylase", "setting": "glucoamylase; [10]", "result": 100, "unit": "%"},
      {"measurement": "Inhibition (%) glucoamylase", "setting": "glucoamylase; [11]", "result": 100, "unit": "%"},
      {"measurement": "inhibition of glucoamylase activity", "setting": "glucoamylase; acarbose 50-500 μg/DU", "result": "completely inhibited"},
      {"measurement": "amount of panose produced", "setting": "transglucosidase; above 50 up to 500 μg acarbose per DU of glucoamylase", "result": "remained constant"},
      {"measurement": "Inhibition (%) transglucosidase", "setting": "transglucosidase; [1]", "result": 0, "unit": "%"},
      {"measurement": "Inhibition (%) transglucosidase", "setting": "transglucosidase; [2]", "result": 0, "unit": "%"},
      {"measurement": "Inhibition (%) transglucosidase", "setting": "transglucosidase; acarbose 5 μg/DU glucoamylase", "result": 0, "unit": "%"},
      {"measurement": "Inhibition (%) transglucosidase", "setting": "transglucosidase; acarbose 10 μg/DU glucoamylase", "result": 0, "unit": "%"},
      {"measurement": "Inhibition (%) transglucosidase", "setting": "transglucosidase; acarbose 15 μg/DU glucoamylase", "result": 0, "unit": "%"},
      {"measurement": "Inhibition (%) transglucosidase", "setting": "transglucosidase; acarbose 20 μg/DU glucoamylase", "result": 0, "unit": "%"},
      {"measurement": "Inhibition (%) transglucosidase", "setting": "transglucosidase; acarbose 30 μg/DU glucoamylase", "result": 0, "unit": "%"},
      {"measurement": "Inhibition (%) transglucosidase", "setting": "transglucosidase; acarbose 40 μg/DU glucoamylase", "result": 0, "unit": "%"},
      {"measurement": "Inhibition (%) transglucosidase", "setting": "transglucosidase; acarbose 50 μg/DU glucoamylase", "result": 0, "unit": "%"},
      {"measurement": "Inhibition (%) transglucosidase", "setting": "transglucosidase; [3]", "result": 0, "unit": "%"},
      {"measurement": "Inhibition (%) transglucosidase", "setting": "transglucosidase; [4]", "result": 0, "unit": "%"},
      {"measurement": "Inhibition (%) transglucosidase", "setting": "transglucosidase; [5]", "result": 0, "unit": "%"},
      {"measurement": "Inhibition (%) transglucosidase", "setting": "transglucosidase; [6]", "result": 0, "unit": "%"},
      {"measurement": "Inhibition (%) transglucosidase", "setting": "transglucosidase; [7]", "result": 0, "unit": "%"},
      {"measurement": "Inhibition (%) transglucosidase", "setting": "transglucosidase; [8]", "result": 6, "unit": "%"},
      {"measurement": "Inhibition (%) transglucosidase", "setting": "transglucosidase; [9]", "result": 8, "unit": "%"},
      {"measurement": "Inhibition (%) transglucosidase", "setting": "transglucosidase; [10]", "result": 12, "unit": "%"},
      {"measurement": "Inhibition (%) transglucosidase", "setting": "transglucosidase; [11]", "result": 23, "unit": "%"},
      {"measurement": "inhibition of transglucosidase activity", "setting": "transglucosidase; acarbose 50-500 μg/DU", "result": "without there being any inhibition of transglucosidase activity"},
      {"measurement": "amount of panose produced", "setting": "transglucosidase; acarbose exceeding 500 μg/DU glucoamylase", "result": "steady decrease in the amount of panose produced, indicating inhibition of TG"},
      {"measurement": "amount of panose produced", "setting": "transglucosidase; up to 50 μg acarbose per DU of glucoamylase", "result": "increased with increasing levels of acarbose"},
      {"measurement": "inhibition of amylolytic enzymes", "setting": "amylolytic enzymes", "result": "inhibitor of amylolytic enzymes"}
    ]}
  ]
}
